{
  "source": "patent US10196417B2",
  "about": "“Baicalin magnesium compound and its preparation method and application” (CHENGDE MEDICAL UNIVERSITY, priority 2016, dated 2019)",
  "tested_on": "acetic acid-induced pain in mice",
  "experiment": "Analgesia: acetic acid-induced writhing",
  "type": "in vivo",
  "conditions": "0.15 g/kg intragastric once per day 7 days",
  "protocol": "40 mice, 20-22 g in weight, were randomly divided into 4 groups each having 10 mice, a baicalin (0.067 g/kg) group, a baicalin magnesium (equivalent to 0.067 g/kg of baicalin) group, a blank control group (administrated with normal saline), and an aspirin positive control group (0.15 g/kg). The mice were intragastrically administrated once per day for successive 7 days. After 30 minutes of final administration, the mice were intraperitoneally injected with 0.6% acetic acid saline solution at a dose of 0.2 mL/10 g; the number of writhing responses in the mice within 15 minutes was counted. Analgesia % was calculated as follows: Analgesia %=[(average number of writhing responses of the blank control group−average number of writhing responses of the drug administration group)/average number of writhing responses of the blank control group]×100%. Single-factor variance analysis was performed on data by the SPSS19.0 statistical software, and P<0.05 was of statistical significance.",
  "note": "Marks after values point to notes of the source that are not given here.",
  "data": [
    {"smiles": "CC(=O)Oc1ccccc1C(=O)O", "note": "[Positive Control, aspirin]", "values": [
      {"measurement": "Analgesia %", "setting": "vs blank control", "value": "83.3* %"},
      {"measurement": "Number of writhing", "setting": "writhing within 15 minutes after 0.6% acetic acid i.p.", "value": "4.43 ± 3.21"}
    ]}
  ]
}
